Test results from ChEMBL document CHEMBL1201862, “PubChem BioAssay data set” (2004).
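In this assay, cells in 96-well plates receive the compound at five concentrations for 48 hours. Endpoints are linearly interpolated between the surrounding concentrations. Abbreviation: GI50, concentration required for 50% inhibition of growth.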 Calls of active or inactive are those of the source. No stated cut-off is given here; in the data, active = GI50 up to about 1.1 µM and inactive = higher.

Assays:
Experiment in all cases: growth of human tumour cells (NCI), 48 h
[1] = tested on: NCI/ADR-RES
[2] = tested on: MDA-MB-435
[3] = tested on: A498
[4] = tested on: DU-145
[5] = tested on: U-251
[6] = tested on: MDA-N
[7] = tested on: SF-295
[8] = tested on: UACC-257
[9] = tested on: HT-29
[10] = tested on: UO-31
[11] = tested on: ACHN
[12] = tested on: HCT-15
[13] = tested on: CAKI-1
[14] = tested on: SK-MEL-28
[15] = tested on: NCI-H23
[16] = tested on: SR
[17] = tested on: OVCAR-4
[18] = tested on: Malme-3M
[19] = tested on: SW-620
[20] = tested on: SNB-75

Compound	GI50 [1]	GI50 [2]	GI50 [3]	GI50 [4]	GI50 [5]	GI50 [6]	GI50 [7]	GI50 [8]	GI50 [9]	GI50 [10]	GI50 [11]	GI50 [12] [µM]	GI50 [13]	GI50 [14]	GI50 [15]	GI50 [16]	GI50 [17]	GI50 [18]	GI50 [19]	GI50 [20]
O=C(/C=c1\oc(=O)/c(=C/C(=O)c2ccc(Cl)cc2)oc1=O)c1ccc(Cl)cc1	> 100 µM (inactive)	> 100 µM (inactive)	> 100 µM (inactive)	> 100 µM (inactive)	> 100 µM (inactive)	> 100 µM (inactive)	> 100 µM (inactive)	> 100 µM (inactive)	> 100 µM (inactive)	> 100 µM (inactive)	> 100 µM (inactive)	98.2	> 100 µM (inactive)	> 100 µM (inactive)	> 100 µM (inactive)	52.6 µM (inactive)	39.6 µM (inactive)	51.3 µM (inactive)		
C=C(C)C(=O)O[C@H]1[C@H]2[C@H](OC(=O)[C@H]2C)[C@H](O)[C@@H](C)[C@@H]2C=CC(=O)[C@]21C	3.22 µM (inactive)	2.56 µM (inactive)	2.69 µM (inactive)	3.9 µM (inactive)	3.16 µM (inactive)	2.58 µM (inactive)	4.63 µM (inactive)	2.13 µM (inactive)	3.33 µM (inactive)	3.94 µM (inactive)	4.11 µM (inactive)	2.04	2.55 µM (inactive)	2.26 µM (inactive)	3.71 µM (inactive)	1.73 µM (inactive)	5.64 µM (inactive)	2.18 µM (inactive)	2.72 µM (inactive)	
CCC(C)C(NC(=O)C(CCCCN)NC(=O)C(NC(=O)C(CCC(N)=O)NC(=O)C(CCCNC(=N)N)NC(C)=O)C(C)CC)C(=O)NC(Cc1c[nH]c2ccccc12)C(=O)NC(Cc1ccccc1)C(=O)NC(CCC(N)=O)C(=O)NC(CC(N)=O)C(=O)NC(CCCNC(=N)N)C(=O)NC(CCCNC(=N)N)C(=O)NC(CCSC)C(=O)NC(CCCCN)C(=O)NC(Cc1c[nH]c2ccccc12)C(=O)NC(CCCCN)C(=O)NC(CCCCN)C(N)=O (centres undefined)	> 50 µM (inactive)	17.5 µM (inactive)	> 50 µM (inactive)	> 50 µM (inactive)	17.8 µM (inactive)	> 50 µM (inactive)	> 50 µM (inactive)	46.5 µM (inactive)	> 50 µM (inactive)		> 50 µM (inactive)	> 50	35.5 µM (inactive)	> 50 µM (inactive)	> 50 µM (inactive)	> 50 µM (inactive)	> 50 µM (inactive)	34.1 µM (inactive)	> 50 µM (inactive)	
C=C1C(C(=O)OC)[C@H]1C(=O)OC (some centres undefined)	> 100 µM (inactive)	> 100 µM (inactive)	> 100 µM (inactive)	> 100 µM (inactive)	> 100 µM (inactive)	> 100 µM (inactive)	> 100 µM (inactive)	> 100 µM (inactive)	> 100 µM (inactive)	> 100 µM (inactive)	> 100 µM (inactive)	> 100	> 100 µM (inactive)	> 100 µM (inactive)	> 100 µM (inactive)	> 100 µM (inactive)	> 100 µM (inactive)		> 100 µM (inactive)	> 100 µM (inactive)
COc1cc(COC(=O)NC(Cc2cccs2)C(=O)O)c([N+](=O)[O-])cc1OC (centres undefined)	> 100 µM (inactive)	> 100 µM (inactive)	39.3 µM (inactive)	> 100 µM (inactive)	> 100 µM (inactive)	> 100 µM (inactive)	> 100 µM (inactive)	> 100 µM (inactive)	> 100 µM (inactive)	> 100 µM (inactive)	> 100 µM (inactive)	> 100		> 100 µM (inactive)	> 100 µM (inactive)	> 100 µM (inactive)		> 100 µM (inactive)	> 100 µM (inactive)	59.2 µM (inactive)
O=C1NC2CCCCC2NC1=C(C(=O)c1ccccc1)C(=O)c1ccccc1 (centres undefined)	29.2 µM (inactive)	46.6 µM (inactive)	> 100 µM (inactive)	> 100 µM (inactive)	26.6 µM (inactive)	70.3 µM (inactive)	40.8 µM (inactive)	95.7 µM (inactive)	36.8 µM (inactive)	26.9 µM (inactive)	33.6 µM (inactive)	23.3	36.4 µM (inactive)	78.2 µM (inactive)	22.4 µM (inactive)	27.2 µM (inactive)		> 100 µM (inactive)	39.3 µM (inactive)	
CC(=O)OC1CC2c3cccc4c3C(CC2N(C)C1=O)CN4C(=O)c1ccccc1 (centres undefined)	20.6 µM (inactive)	18.4 µM (inactive)	21.5 µM (inactive)	16.6 µM (inactive)	15.7 µM (inactive)	21.7 µM (inactive)	23.2 µM (inactive)	20.5 µM (inactive)	17.9 µM (inactive)	16 µM (inactive)	20 µM (inactive)	14.5	23 µM (inactive)	21.6 µM (inactive)	16.6 µM (inactive)	22.5 µM (inactive)	22.1 µM (inactive)		23.4 µM (inactive)	
c1ccc(C(NCC2CCO2)(c2ccccc2)c2ccccc2)cc1 (centres undefined)	14.1 µM (inactive)	21.1 µM (inactive)	19.2 µM (inactive)	27.7 µM (inactive)	23 µM (inactive)	24.3 µM (inactive)	15.1 µM (inactive)	19.4 µM (inactive)		12.8 µM (inactive)	15.7 µM (inactive)	16.4	23.9 µM (inactive)	28.6 µM (inactive)	16.3 µM (inactive)	36.3 µM (inactive)	16.2 µM (inactive)	18.7 µM (inactive)	19.3 µM (inactive)	15.2 µM (inactive)
CC(=O)OCc1cc(CCC(=O)NCCNc2c3ccccc3nc3ccccc23)cc(COC(C)=O)c1O[Si](C)(C)C(C)(C)C	20.7 µM (inactive)	2.97 µM (inactive)	1.91 µM (inactive)	12.1 µM (inactive)	4.88 µM (inactive)	5.85 µM (inactive)	2.67 µM (inactive)	4.36 µM (inactive)	2.63 µM (inactive)	12.9 µM (inactive)	13.8 µM (inactive)	14.4		4.73 µM (inactive)	14.5 µM (inactive)	2.21 µM (inactive)	6.19 µM (inactive)	6.25 µM (inactive)	9.44 µM (inactive)	
COc1cc(/C=C/c2ccc(C)cc2)cc(OC)c1OC	2.07 µM (inactive)	1.14 µM (inactive)		3.01 µM (inactive)	3.78 µM (inactive)	0.895 µM (active)	2.54 µM (inactive)	6.97 µM (inactive)	2.69 µM (inactive)	4.49 µM (inactive)	6.31 µM (inactive)	4.08	5.9 µM (inactive)	5.77 µM (inactive)	2.9 µM (inactive)	2.52 µM (inactive)	17.3 µM (inactive)	4.35 µM (inactive)	4.29 µM (inactive)	2.58 µM (inactive)
